{"source": "patent US10022358B2", "about": "“Methods for improving muscle and heart function” (BioVentures, LLC, priority 2013, dated 2018)", "key": {"[1]": {"system": "nitric oxide (NO) synthesis", "test": "Isotopic tracer study of plasma arginine and NO synthesis during citrulline ingestion (FIG. 5)", "assay_type": "in vivo, human", "method": "FIG. 5 depicts plasma arginine responses (A) and nitric oxide (NO) synthesis rates (B) in basal period and during ingestion of 3 g of citrulline (CIT) sip ingestion over 3 hours in elderly (n=8, 77±9y, 93±4 kg) and young individuals (n=8, 27±9y, 70±5 kg).\nBriefly, elderly (n=8, 77±9y, 93±4 kg) and young individuals (n=8, 27±9y, 70±5 kg) ingested 3 grams of citrulline over 3 hours and plasma arginine response and nitric oxide (NO) synthesis rates were quantified. […] Thus, oral ingestion of citrulline is very effective in increasing peripheral arginine concentration and NO synthesis in elderly subjects with heart failure."}, "[2]": {"system": "muscle protein synthesis", "conditions": "cited from earlier work"}, "[3]": {"system": "patients with heart failure", "conditions": "dietary supplementation; cited from earlier work"}, "[4]": {"system": "mitochondrial biogenesis", "conditions": "cited from earlier work"}, "[5]": {"system": "carnitinepalmitoyltransferase (CPT)-1", "test": "CPT-1 activity in heart mitochondria of old animals treated with oral propionyl-L-carnitine (FIG. 8)", "assay_type": "in vivo, rodent", "conditions": "old hearts, oral treatment, p<0.02, n=6", "from_the_text": "FIG. 8 depicts graphs showing carnitinepalmitoyltransferase (CPT)-1activity decreases with age in mitochondria (2 vs 18 mos, p<0.004).\nAppropriate regulation of energy substrate metabolism not only involves relatively normal insulin sensitivity, but also adequate number and functional capacity of mitochondria. One aspect of mitochondrial function is the rate of production of mitochondrial proteins. […] In addition to adequate protein content in mitochondria, it is necessary that substrates, particularly long-chain fatty acids, are not limited in their ability to enter the mitochondria, or in their complete oxidation once inside the mitochondria. The capacity to oxidize fatty acids is reduced in patients with major inflammatory responses due to reduced carnitine palmitoyltransferase 1 (CPT1) activity. Unimpaired capacity to oxidize fatty acids is important because the energy to perform low-intensity exercise, including activities of daily living that individuals with heart failure often struggle with, is provided by the oxidation of fatty acids."}, "[6]": {"conditions": "3 g citrulline sip ingestion over 3 hours, elderly and young"}}, "note": "“Also recorded” adds a separate entry of the source.", "data": [{"compound": "NC(=O)NCCC[C@H](N)C(=O)O", "note": "[citrulline]", "values": [{"measurement": "nitric oxide (NO) synthesis rate", "setting": "[1]; [6]", "value": "stimulated production of NO"}, {"measurement": "plasma arginine response", "setting": "[1]; [6]", "value": "effectively increased the concentration of arginine in the blood"}, {"measurement": "increase in NO synthesis in elderly", "setting": "[1]; elderly with heart failure, 3 g citrulline over 3 hours", "value": "physiologically significant"}]}, {"compound": "N=C(N)NCCC[C@H](N)C(=O)O", "note": "[arginine]", "values": [{"measurement": "effect on muscle protein synthesis when NO synthesis pharmacologically blocked", "setting": "[2]", "value": "effective even when given when NO synthesis was pharmacologically blocked"}, {"measurement": "blood pressure", "setting": "[3]", "value": "reduces blood pressure"}, {"measurement": "duration until exhaustion on a treadmill walk", "setting": "[3]", "value": "increased duration until exhaustion"}, {"measurement": "right ventricular function", "setting": "[3]", "value": "improves right ventricular function"}]}, {"compound": "CC(C)C[C@H](N)C(=O)O", "note": "[leucine]", "values": [{"measurement": "mitochondrial biogenesis", "setting": "[4]", "value": "stimulate mitochondrial biogenesis"}]}, {"compound": "CCC(=O)O[C@H](CC(=O)[O-])C[N+](C)(C)C", "note": "[propionyl-L-carnitine]", "values": [{"measurement": "CPT-1 activity in mitochondria", "setting": "[5]", "value": "can restore CPT-1 activity to that of young hearts; also recorded: restored CPT to that of young hearts"}]}]}
